Assay results from the supplement of paper PMC10307832.

What was measured:
Experiment in all cases: relative viability (nuclei count vs DMSO), 5 days (fraction); higher = more cells survive
[1] = compound: C1=CC(=CC=C1NC(=S)NNC2=C(C=C(C=C2[N+](=O)[O-])C(F)(F)F)[N+](=O)[O-])F [Kobe2602] + CCNC(=O)c1noc(-c2cc(C(C)C)c(O)cc2O)c1-c1ccc(CN2CCOCC2)cc1 [Luminespib] (partner 0.01 µM)
Method in brief: (§1)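 Relative viability is defined as nuclei in treated wells over nuclei in vehicle wells. Duplicate plates were run and medians reported. Lung cancer cell lines in 1536-well plates were dosed by pin tool one day after seeding, with one drug or with a fixed anchor-drug dose plus five library-drug doses (not always all listed) in √10 steps, and nuclei were counted after 5 days.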

[2] = compound: O[C@@H](COc1cccc2ncccc12)CN1CCN([C@@H]2c3ccccc3[C@@H]3[C@H](c4ccccc42)C3(F)F)CC1 [Zosuquidar] + COc1cccc2cc(-c3nc([C@H]4CC[C@H](C(=O)O)CC4)n4ncnc(N)c34)[nH]c12 [OSI-027] (partner 0.5 µM)
Method in brief: as §1

[3] = compound: C1=CC(=CC=C1NC(=S)NNC2=C(C=C(C=C2[N+](=O)[O-])C(F)(F)F)[N+](=O)[O-])F [Kobe2602] + Nc1nc2[nH]cc(CCc3ccc(C(=O)N[C@@H](CCC(=O)O)C(=O)O)cc3)c2c(=O)[nH]1 [Pemetrexed] (partner 0.2 µM)
Method in brief: as §1

[4] = compound: COc1cc2nccc(Oc3ccc(NC(=O)C4(C(=O)Nc5ccc(F)cc5)CC4)cc3)c2cc1OC [Cabozantinib] + COc1cc2c(Oc3ccc(NC(=O)C4(C(=O)Nc5ccc(F)cc5)CC4)cc3F)ccnc2cc1OCCCN1CCOCC1 [Foretinib] (partner 0.25 µM)
Method in brief: as §1

Cell Line | relative viability ([1]; first compound 0.2 µM) | relative viability ([1]; first compound 0.6325 µM) | relative viability ([1]; first compound 2 µM) | relative viability ([1]; first compound 6.325 µM) | relative viability ([1]; first compound 20 µM) | relative viability ([2]; first compound 0.01 µM) | relative viability ([2]; first compound 0.03162 µM) | relative viability ([2]; first compound 0.1 µM) | relative viability ([2]; first compound 0.3162 µM) | relative viability ([2]; first compound 1 µM) | relative viability ([3]; first compound 0.2 µM) | relative viability ([3]; first compound 0.6325 µM) | relative viability ([3]; first compound 2 µM) | relative viability ([3]; first compound 6.325 µM) | relative viability ([3]; first compound 20 µM) | relative viability ([4]; first compound 0.02 µM) | relative viability ([4]; first compound 0.06325 µM) | relative viability ([4]; first compound 0.2 µM) | relative viability ([4]; first compound 0.6325 µM) | relative viability ([4]; first compound 2 µM)
SK-MES-1 | 0.67 | 0.778 | 0.853 | 0.832 | 0.406 | 0.639 | 0.665 | 0.549 | 0.638 | 0.652 | 0.917 | 0.946 | 0.934 | 0.868 | 0.534 | 0.936 | 1.1 | 0.948 | 1.09 | 0.802
HCC-366 |  |  |  |  |  | 0.911 | 1.09 | 0.845 | 1.19 | 0.956 | 0.157 | 0.179 | 0.16 | 0.146 | 0.328 | 0.941 | 0.948 | 0.95 | 0.905 | 0.888
NCI-H3122 | 0.074 | 0.0661 | 0.0867 | 0.102 | 0.0834 | 0.921 | 1.03 |  | 1.36 | 0.936 | 0.189 | 0.191 | 0.198 | 0.187 | 0.208 | 0.947 | 0.973 | 0.949 | 0.892 | 0.946
COR-L 105 | 0.591 | 0.896 | 0.848 | 0.643 | 0.719 | 0.595 | 0.679 | 0.519 | 0.79 | 0.613 | 1.01 | 1.27 | 0.923 | 1.15 | 1.16 | 1.36 | 1.01 |  | 1.14 | 0.969
201T | 1.02 | 1.05 | 0.993 | 1.14 | 0.966 | 0.777 | 0.722 | 0.646 | 0.803 | 0.741 | 0.353 | 0.366 | 0.341 | 0.379 | 0.288 |  | 1.21 | 1.05 | 1.05 | 1.14
NCI-H2228 | 0.129 | 0.177 | 0.198 | 0.145 | 0.165 | 0.614 | 0.635 | 0.604 | 0.745 | 0.428 | 0.369 | 0.356 | 0.339 | 0.344 | 0.35 | 1.08 | 1.26 | 0.932 | 0.794 | 0.672
LC-2-ad | 1.01 | 1.15 | 0.908 | 1.12 | 1.06 | 0.865 | 0.814 | 0.829 | 1.09 | 0.864 | 0.292 | 0.296 | 0.285 | 0.275 | 0.264 |  | 1.03 | 0.889 | 1.02 | 0.89
NCI-H2087 | 0.226 | 0.153 | 0.174 | 0.143 | 0.153 | 0.607 |  | 0.432 | 0.694 | 0.587 | 0.649 | 0.653 | 0.584 | 0.698 | 0.649 | 1.17 | 1 | 1.3 | 1.2 | 0.967
NCI-H1623 | 0.578 | 0.427 | 0.571 | 0.368 | 0.491 | 0.432 | 0.464 | 0.421 | 0.441 | 0.43 |  |  |  |  |  | 0.783 | 1.05 | 0.695 | 0.828 | 0.874
ABC-1 | 0.785 | 0.851 |  | 0.494 | 0.887 | 0.479 | 0.426 | 0.607 | 0.54 | 0.509 |  |  |  |  |  | 1.15 | 1.13 | 1.11 | 1 | 0.932
IA-LM |  |  |  |  |  |  |  |  |  |  |  |  |  |  |  | 1.15 | 1.15 | 1.22 | 1.23 | 1.24
NCI-H1299 |  |  |  |  |  |  |  |  |  |  |  |  |  |  |  | 1.12 | 1.12 | 1.16 | 1.11 | 1.13
NCI-H1792 | 0.319 | 0.58 | 0.47 | 0.558 | 0.517 | 0.786 | 0.601 |  | 0.837 | 0.753 | 0.679 | 0.964 | 0.714 | 0.887 | 0.814 |  |  |  |  | 
Calu-6 |  |  |  |  |  |  |  |  |  |  |  |  |  |  |  | 1.04 | 0.876 | 0.923 | 0.916 | 0.811
NCI-H727 | 0.581 | 0.516 | 0.4 | 0.407 | 0.414 | 0.622 | 0.538 | 0.343 | 0.783 | 0.705 |  |  |  |  |  | 0.675 | 1.06 | 1.08 | 0.818 | 0.889
EBC-1 |  |  |  |  |  |  |  |  |  |  |  |  |  |  |  | 0.101 | 0.104 | 0.0976 | 0.0898 | 0.114
NCI-H1703 |  |  |  |  |  |  |  |  |  |  |  |  |  |  |  | 0.305 | 0.399 | 0.356 | 0.427 | 0.37
HCC-44 | 1.05 | 0.97 | 0.984 | 1.13 | 0.921 | 0.53 | 0.391 | 0.542 | 0.521 | 0.581 | 0.595 | 0.684 | 0.653 | 0.671 | 0.609 |  |  |  |  | 
NCI-H1648 |  |  |  |  |  | 0.243 |  | 0.234 | 0.288 | 0.245 | 0.759 | 0.684 | 0.519 | 0.693 | 0.809 |  |  |  |  | 
NCI-H522 | 1.08 | 1.25 | 1.31 | 1.09 | 1.03 | 0.714 | 0.58 | 0.756 | 0.898 | 0.857 | 1.06 | 1.19 | 0.974 | 1.15 | 1.01 |  |  |  |  | 
A549 |  |  |  |  |  |  |  |  |  |  |  |  |  |  |  | 1.09 | 1.17 | 0.964 | 0.909 | 0.942
HCC-78 |  |  |  |  |  | 0.346 | 0.356 |  | 0.422 | 0.294 | 0.891 | 0.923 | 0.699 | 0.868 | 0.844 |  | 0.684 | 0.549 | 0.541 | 0.518
